Assay results taken from patent publication US8133849B2, “Herbicidal compounds” (Syngenta Limited, priority 2007, dated 2012).

Legend:
Assay in all cases: Example B2 herbicidal action, post-emergence, pots in glasshouse, damage score 0-10
Assay type in all cases: in vivo
Details in all cases: application post-emergence, rate 1000 g/ha, evaluated after 13 days
[1] = test system: Amaranthus retroflexus
How it was run: (§1)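 Damage was assessed 13 days after a post-emergence spray given to 8-day-old pot seedlings. The spray was an aqueous solution from an acetone/water (50:50) formulation with 0.5% Tween 20. Plants grew in a glasshouse at 24/16° C, 14 h light, 65% humidity, watered twice daily.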

[2] = test system: Echinochloa crus-galli
How it was run: as §1

[3] = test system: Ipomea hederaceae
How it was run: as §1

[4] = test system: Setaria faberi
How it was run: as §1

[5] = test system: Solanum nigrum
How it was run: as §1

Row | SMILES | AMARE damage score (10=total damage to plant; 0=no damage to plant) [1] | ECHCG damage score (10=total damage to plant; 0=no damage to plant) [2] | IPOHE damage score (10=total damage to plant; 0=no damage to plant) [3] | SETFA damage score (10=total damage to plant; 0=no damage to plant) [4] | SOLNI damage score (10=total damage to plant; 0=no damage to plant) [5]
1 | CC(C)(C)C(=O)OC1=C(c2ccc(-c3ccc(Cl)cc3F)cc2Cl)S(=O)(=O)N(CC(F)F)c2nccnc21 [Compound C142] | 4 | 1 | 3 | 0 | 6
2 | CCN1c2nccnc2C(O)=C(c2c(Cl)ccc(Cl)c2Cl)S1(=O)=O [Compound D36] | 10 | 6 | 10 | 2 | 10
3 | CC(C)C(=O)OC1=C(c2ccccc2C#N)S(=O)(=O)N(CC(F)F)c2nccnc21 [Compound C128] | 7 | 0 | 8 | 0 | 9
4 | CCN1c2nccnc2C(OC(=O)C(C)C)=C(c2cc(I)ccc2Cl)S1(=O)=O [Compound C51] | 5 | 1 | 6 | 0 | 7
5 | C=CCN1c2nccnc2C(OC(=O)C(C)(C)C)=C(c2cc(Cl)ccc2C(F)(F)F)S1(=O)=O [Compound C118] | 6 | 5 | 4 | 4 | 8
6 | O=S1(=O)C(c2c(Cl)ccc(Cl)c2C(F)(F)F)=C(O)c2nccnc2N1CC(F)F [Compound D27] | 9 | 7 | 7 | 8 | 8
7 | CCOC(=O)OC1=C(c2cc(Cl)cc(C(F)(F)F)c2)S(=O)(=O)N(CC(F)F)c2nccnc21 [Compound C124] | 10 | 0 | 2 | 0 | 2
8 | C=CCN1c2nccnc2C(O)=C(c2cc(Cl)ccc2C(F)(F)F)S1(=O)=O [Compound D54] | 2 | 3 | 4 | 3 | 7
9 | CCN1c2nccnc2C(OC(=O)C(C)(C)C)=C(c2ccccc2C(F)(F)F)S1(=O)=O [Compound C64] | 4 | 5 | 6 | 3 | 5
10 | CSC(=O)OC1=C(c2c(Cl)cccc2C(F)(F)F)S(=O)(=O)N(CC(F)F)c2nccnc21 [Compound C129] | 10 | 9 | 9 | 9 | 10
11 | CC(C)(C)C(=O)OC1=C(c2cccc(C(F)(F)F)c2Cl)S(=O)(=O)N(CC(F)F)c2nccnc21 [Compound C74] | 7 | 4 | 7 | 3 | 6
12 | CCSC(=O)OC1=C(c2cccc(Cl)c2Cl)S(=O)(=O)N(CC(F)F)c2nccnc21 [Compound C101] | 4 | 5 | 8 | 2 | 10
13 | Cc1ccc(C(F)(F)F)c(C2=C(OC(=O)C(C)(C)C)c3nccnc3N(CC(F)F)S2(=O)=O)c1 [Compound C148] | 7 | 3 | 8 | 2 | 9
14 | CC#CCN1c2nccnc2C(OC(=O)C(C)(C)C)=C(c2c(Cl)ccc(Cl)c2C(F)(F)F)S1(=O)=O [Compound C96] | 0 | 1 | 4 | 0 | 7
15 | O=S1(=O)C(c2ccc(Cl)cc2Cl)=C(OCC(F)(F)F)c2nccnc2N1CC(F)(F)F [Compound C106, 3-(2,4-dichloro-phenyl)-4-(2,2,2-trifluoro-ethoxy)-1-(2,2,2-trifluoro-ethyl)-1H-2-thia-1,5,8-triaza-naphthalene 2,2-dioxide] | 6 | 1 | 3 | 0 | 7
16 | CC(C)C(=O)OC1=C(c2cccc(C(F)(F)F)c2Cl)S(=O)(=O)N(CC(F)F)c2nccnc21 [Compound C73] | 7 | 2 | 7 | 2 | 7
